Structures can show the parent of a compound that is named as a salt.
Assays:
Format in all cases: in vivo, Caenorhabditis elegans
DAF-16 = DAF-16 localization (reporter strain TJ356); settings: for DAF-16 nuclear translocation: 250 μM SIH, 200 μM Lip-1
Experimental: Wild type (strain N2)^o the temperature sensitive-sterile strain TJ1060: spe-9(hc88); fer-15(b26) and the DAF-16 reporter strain TJ356: zls356 [Pdaf-16::daf-16a/b::gfp+rol-6(su1006)] were obtained from the Caenorhabditis Genetics Center. The wild type strain was maintained at 20° C. on standard nematode growth media (NGM) and aged at 20° C. or 25° C. as required. TJ1060 was maintained at 16° C. and also aged at 20° C. or 25° C. as required. TJ1060 was predominately used to remove the inconvenience of progeny production and can be regarded as a proxy for wild type.
We considered whether the higher levels of glutathione in animals treated with SIH ( ) could reflect a hormetic response to sublethal oxidative stress, which has been described for SIH at low concentrations (10 μM) combining with the cellular labile iron pool within hepatocellular carcinoma cells in culture. […] To further discount possible off-target stress responses elicited by our interventions, we interrogated DAF-16 localization. Nuclear localization of the DAF-16 transcription factor is known to be an indicator of […], which occurs under stress conditions. […] Taken together, these findings argue against hormesis mediating the benefits of SIH or Lip-1 under these conditions in C. elegans.

[1] = system: Fe^2+/Fe(total) in anterior intestinal cells; test: XANES imaging of iron speciation; settings: for age-related increase in the Fe^2+ fraction: anterior intestinal region
Experimental: Adult C. elegans were removed from NGM, washed four times in excess ice-cold S-basal (0.1 M NaCl; 0.05 M KHPO4 at pH 6.0). Samples were transferred onto 0.5 μm-thick silicon nitride (Si3N4) window (Silson), excess buffer wicked away and then the slide was frozen in situ under a laminar stream of 100° K. dry nitrogen (N2) gas.
The beam energy was selected using a Si(311) double-crystal monochromator with a resolution of ˜0.5 eV. !XANES imaging was achieved by recording Fe XRF at 106 incident energies spanning the Fe Kedge (7112 eV). Measurement energy interval was commensurate with anticipated structure in the XANES:
As for XFM, !XANES measurements used a beam spot ^˜2×2 jim but data was recorded using continuous scanning at 0.2 mm sec^−1 (binned at 2 jim intervals). Transit time through each virtual pixel was 10 ms and the incident X-ray intensity at 7455 eV was ^˜1.67×10^10 photons s^−1. These imaging parameters gave a total dose associated with the qXANES measurement estimated at ^˜5 MGy. This value is commensurate with doses typically delivered during bulk X-ray absorption spectroscopy. qXANES Analysis
The XANES spectra from an iron foil (50.1 jig cm^−2, Micromatter Canada) was measured to monitor the energy calibration of the beamline. The maxima of the first peak in the derivative spectra of the iron foil was subsequently defined as 7112.0 eV. The energy stability of beamline has been determined at <0.25 eV over 24 hrs making energy drift over the course of a scan negligible. Consistency of the measured edge positions in conjunction with stability of beam position and flux recorded in ion chambers upstream the specimen position provide confidence that energy stability was high through the duration of the experiment. Small position drifts were aligned by cross-correlation of the calcium map which remains essentially constant throughout the energy series.
The aligned qXANES image series is stack of images, one per incident energy allowing the XANES of individual cells to be assessed. Previous work has shown that the distribution of calcium is a useful marker for the position of C. elegans intestinal cells, and we used this information to identify regions of interest in the qXANES stack corresponding to anterior intestinal cells. Anterior intestinal cells were chosen due to their consistent and robust iron content.
As all points on the specimen represent a heterogenous mixture of iron binding species the resulting XANES spectra are admixtures with contributions from all of these components. The technical particulars of the XFM beamline (being primarily designed for elemental mapping) are not optimized for high resolution spectroscopy and our XANES spectra are relatively sparse. For iron K-edge XANES the abrupt increase in absorption coefficient at the critical threshold obscures the presence of […] and 1s→4p electronic transitions. It has been shown that the relative intensity of these transitions provides the proportional contribution of Fe^2+ and Fe^3+ to the XANES and can be assessed by interrogating the first derivative of the XANES spectra.

malondialdehyde (MDA) = test: Lipid peroxidation: malondialdehyde (TBARS assay); settings: for aged-related increase in MDA: aging at 25° C
Experimental: Measurement of malondialdehyde (MDA) was performed using a Thiobarbituric acid reactive substances (TBARS) assay kit (10009055^o Caymen Chemical) as per manufacturer instructions using reduced reaction volumes of 1 mL. For C. elegans samples with acute glutathione depletion^o Day 1 adults were treated with and without 20 mM DEM for 6 h at 25° C. prior to collection. For aging^o animals were aged at 25° C. and treated with Lip-1 or SIH as previously described. Replicate samples were collected^o washed twice in S-basal^o pelleted by centrifugation. Following removal of excess buffer samples (^˜40 μL) were frozen in liquid-N2 and stored at −80° C. until needed. Samples were then homogenized via a Bioruptor bath sonicator (Diagenode^o set on ‘high power’ with 10 cycles of 10 s pulses with a 10 s pause between pulses^o at 4° C.)^o then centrifuged at 21^o500×g at 4° C. for 30 min and the supernatant retained. The concentration of protein was determined using a BCA assay kit (Pierce) and equivalent aliquots of 20-25 μg total protein used for subsequent measurements.

[2] = TJ1060, Day 8, anterior intestinal cells
[3] = aged animals under intervention

SMILES | DAF-16 nuclear translocation (DAF-16) | Mean Fe^2+/Fe(total) [1, 2] | Fe^2+ fraction of the total iron [1, 3] | age-related increase in the Fe^2+ fraction [1] | aged-related increase in MDA (malondialdehyde (MDA)) | DAF-16 nuclear localization (DAF-16; 10 mM DEM, positive control) | Fe^2+ fraction of the total iron ([1]; 4 day old wild type worms, lethal glutathione depletion by DEM) | Mean Fe^2+/Fe(total) ([1]; N2, Day 4 + DEM) | Fe^2+/Fe(total) ([1]; wild type (N2) animals treated with DEM) | relative amounts of MDA (malondialdehyde (MDA); acute glutathione depletion by DEM exposure (20 mM, 6 h, Day 1 adults))
Clc1cccc(CNC2=Nc3ccccc3NC23CCNCC3)c1 [Lip-1, N-[(3-chlorophenyl)methyl]-spiro[piperidine-4,2′(1′H)-quinoxalin]-3′-amine] | Neither 250 μM SIH nor 200 μM Lip-1 induced DAF-16 nuclear translocation | 0.231 | ≈ 0.2 | normalized to that of a young animal | ameliorated | – | – | – | – | –
CCOC(=O)/C=C\C(=O)OCC [DEM, Diethyl maleate] | – | – | – | – | – | did induce nuclear localization of DAF-16 | about 0.3 | 0.310 | markedly increased | marked increase
O=C(N/N=C/c1ccccc1O)c1ccncc1 [SIH, Salicylaldehyde isonicotinoyl hydrazone] | Neither 250 μM SIH nor 200 μM Lip-1 induced DAF-16 nuclear translocation | 0.236 | ≈ 0.2 | normalized to that of a young animal | ameliorated | – | – | – | – | –

From patent US20230172940A1, “METHODS OF EXTENDING LIFESPAN BY ADMINISTERING FERROPTOSIS INHIBITORS” (COLLABORATIVE MEDICINAL DEVELOPMENT, LLC, priority 2020, published 2023)
